# Data from patent US12551479B2, “Acyl-protein thioesterase inhibitor for the treatment and/or prevention of Huntington's disease” (UNIVERSITÉ GRENOBLE ALPES, priority 2019, dated 2026).
# Legend:
# melanoma cells = conditions: studies of Vujic et al., 2015; cited from earlier work
# Hdh^CAG140/+ mice = test: Horizontal Ladder test; format: in vivo, mouse; conditions: Hdh^CAG/+ mice, 0.3 mg/kg/day subcutaneous infusion; values similar to wild-type
# Procedure: Mice littermates were grouped into mixed treatment groups. Males and females were 6 months of age at the beginning of the treatment. For each specific test, all experimental groups were tested on the same day, during the light phase and between Days 16 and 28 of treatment. Prior to testing, mice were acclimatized to the test room for a period of 30 minutes. Treatments were randomly assigned and behavioral tests were performed 12 days before the end of the delivery of the treatment. […] Mice were excluded from analysis if their performance was calculated as a significant outlier by the Grubb test. One mouse was excluded based on these criteria. Mouse weights were measured prior to the start of treatment and until the end of testing.
# A horizontal ladder is used to assess forelimb and hindlimb placement and coordination. The horizontal ladder is composed of two clear Plexiglas walls (69.50×15 cm) containing metal rungs (0.2 cm diameter) irregularly spaced (between 0.5 and 2 cm apart). Mice were habituated to walk on a horizontal ladder during two consecutive days (3 trials per day). Then the mice were tested (3 trials) with a different pattern than the two days of habituation. Test trials were videorecorded, and the motor performance as well as the latency to complete the task were quantified. Data are expressed as the average of the 3 trials.
# [1] = test system: WT and Hdh^CAG/+ corticostriatal network; test: Synapse density (adjacent SYP and PSD95 spots) in microfluidic corticostriatal network; format: cell-based, mouse; conditions: 1 μM daily
# Procedure: In FIG. 3H, we can see the recording area that was chosen for the assessment of synapse density by quantifying the number of synaptophysin (SYP) spots, a presynaptic marker, and the number of PSD95 spots, a postsynaptic marker. FIG. 3I testifies that in the Hdh^CAG/+ microfluidic network, the number of synapses is decreased in the microfluidic devices.
# (§1) For striatal StHdh cells, acute treatment was performed at 10 μM for 1 hour before and during the acquisition time. For neurons within the microchambers, treatments were started at DIV2 until DIV12 every day at 1 μM in each compartment of the microfluidic device.
# The inventors then assessed synapse density by quantifying the number of synaptophysin spots (presynaptic marker, SYP) adjacent to PSD95 spots (postsynaptic marker) within synaptic chamber of the microfluidic device using high-resolution Airyscan confocal microscopy (FIG. 3H). In Hdh^CAG/+ network, the number of synapses is decreased in the microfluidic devices (FIG. 3I). […] However, this was not significant.
# [2] = test system: cortical neurons from WT and Hdh^CAG/+ mice; test: BDNF-mCherry axonal transport in corticostriatal network on microfluidic device; format: cell-based, mouse
# Procedure: Referring to FIG. 3A, the inventors have reproduced the corticostriatal network in vitro on a microfluidic device consisting of two neuronal chambers that are connected via microchannels. Experiments are performed over a period of time ranging from 2 to 12 days in vitro (Days in vitro), i.e. DIV2 to DIV12, and a fixation/acquisition at DIV12.
# as §1
# The inventors then investigated whether ML-348 is able to restore dysfunctions of the corticostriatal network in Huntington's disease. Indeed, corticostriatal circuit is particularly altered in Huntington's disease, which manifests itself by a dysfunction and a degeneration of both the striatal neurons and their corticostriatal afferences. They developed a microfluidic-based approach that enables the reconstruction of a time- and space-controlled neuronal network compatible with fast spinning confocal videomicroscopy. This system uses a silicon polymer-based microfluidic device composed of two fluidically-isolated neuronal chambers that are connected via a set of thin microchannels through which neurites can grow and contact each other in an intermediate synaptic compartment. Using primary neuron cultures, they reconstituted a corticostriatal network in which cortical neurons project to striatal target neurons through oriented axodendritic connections (FIG. 3A). These devices are compatible with drug treatment and therefore can be used to test pharmacological agents in vitro on this functional circuit.
# Cortical neurons from WT and Hdh^CAG/+ mice were infected with BDNF-mCherry lentivirus and acquisitions were performed at Day 12 in the distal part of the long microchannels to analyze axonal transport of BDNF (FIG. 3B). As expected, defects in axonal transport in HD (Huntington's disease) neurons were identified for both the anterograde and retrograde transport velocities, and also in the number of vesicles travelling along the microtubules (FIG. 3C-3E). These effects lead to a reduction of the linear net flux with no impact one the directionality of the vesicles (FIGS. 3F and 3G).
# [3] = Pharmacokinetics after intraperitoneal injection, plasma and brain by LC-MS/MS; format: in vivo; conditions: mice, 2 mg/kg intraperitoneal
# Procedure: The ability of the ML-348 molecule to freely cross the blood brain barrier is an additional argument towards the efficacy of the molecule in vivo in mice.
# Plasma proteins were precipitated by adding 800 μL acetonitrile into 400 μL of sample. Brains were ground into 400 μL H2O before adding 800 μL acetonitrile. Samples were centrifuged to remove insoluble residues at 15.000 g for 5 minutes at 16° C. Supernatants were analyzed by LC-MS/MS. LC-MS/MS was assessed by high-performance liquid chromatography (UHPC) coupled with a triple quadrupole (Shimadzu LC-MS 8030). Analyses were performed from 3 mice for each time point.
# Before investigating ML-348 in vivo, the inventors first evaluated the pharmacokinetics of the molecule. […] They then evaluated the efficacy of the molecule to increase brain palmitoylation level 30 minutes after injection. For this purpose, they performed an Acyl-Biotin-Exchange (ABE) assay to biotinylate palmitoylated proteins before their immunoprecipitation with streptavidin-coated beads (FIG. 4D).
# [4] = test system: mouse cortical neuronal cells; test: MTT toxicity assay; format: cell-based
# Procedure: Toxicity was assessed using the tetrazolium salt MTT assay. The cortical culture was treated every day as previously described. After treatment, a solution of MTT (Life M6494) was added to the culture medium at 1.2 mM and incubated for 3 hours. The reaction was terminated by adding the solvent solution (4 mM HCl, 0.1% NP40 in isopropanol). The absorbance value was measured at 595 and 690 nm.
# ERK phosphorylation = test: Postsynaptic signaling: phosphoERK immunopositive striatal neurons after glycine/strychnine stimulation; format: cell-based, mouse; conditions: Hdh^CAG/+ neurons, 1 μM daily; glycine/strychnine 15 minutes
# Procedure: They used ERK phosphorylation as the readout of the postsynaptic signaling. […] The inventors stimulated cortical neurons for 15 minutes with glycine/strychnine and quantified the percentage of striatal neurons immunopositive for phosphoERK (FIG. 3J).
# [5] = Hdh^CAG/+ network, 1 μM daily DIV2 to DIV12
smiles,measurement,setting,value
O=C(CN1CCN(C(=O)c2ccco2)CC1)Nc1cc(C(F)(F)F)ccc1Cl [ML-348],effect on melanoma cells,melanoma cells,no biologically significant effect
same,average error score,Hdh^CAG140/+ mice,significant improvement
same,average time to cross the horizontal ladder,Hdh^CAG140/+ mice,significant improvement
same,number of synapses (adjacent SYP and PSD95 spots),[1]; Hdh^CAG/+ network,restored the number of synapses
same,number of synapses (adjacent SYP and PSD95 spots),"[1]; wild-type network, not statistically significant",slightly reduced synapse connectivity
same,anterograde and retrograde transport velocities of BDNF-mCherry,[2]; [5],restored to values approximately equal to those of the wild type
same,linear net flow of BDNF-mCherry vesicles,[2]; [5],restored to values approximately equal to those of the wild type
same,number of anterograde and retrograde vesicles moving over 100 μm for 30 seconds,[2]; [5],restored to values approximately equal to those of the wild type
same,effect on BDNF trafficking in WT neurons,"[2]; WT neurons, 1 μM daily",inhibitory effect on BDNF trafficking
same,crossing of the blood brain barrier ([Brain]/[Plasma] values),"[3]; 30, 60 and 180 minutes",effectively crosses the blood brain barrier
same,degradation after injection (plasma and brain levels),[3]; 60 minutes after injection,rapidly degraded
same,cell viability (MTT),"[4]; 100 nM, 1 μM or 10 μM",no effect
same,toxicity (MTT),"[4]; 1 μM, for 12 days",no toxicity
same,toxicity (MTT),"[4]; 100 μM, over 48 hours",toxic
same,toxicity (MTT),"[4]; wild-type cortical cultures, 1 μM for 10 days",no toxicity
same,percentage of immunopositive phosphoERK cells in the postsynaptic space,ERK phosphorylation,restore postsynaptic signaling to values encountered in wild-type neurons
